Entries after “also recorded” stand apart in the source; their conditions may differ. Where two headings read alike, the source gives them in different places.
Assays:
MIF [1] = molecular target: T1, MIF (Homo sapiens, UniProt P14174); assay: Enzyme kinetics of MIF-catalyzed PP conversion (Michaelis-Menten, Lineweaver-Burk); type: biochemical; settings: for Vmax: 35 nM MIF
T1 construct: made in house; host or cells: Escherichia coli BL21, pET-20b(p) plasmid
T1 sequence (P14174 2-115 limits assumed): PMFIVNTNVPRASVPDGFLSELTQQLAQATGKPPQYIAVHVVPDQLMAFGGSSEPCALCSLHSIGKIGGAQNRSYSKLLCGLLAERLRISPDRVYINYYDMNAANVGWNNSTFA
Method: Enzyme kinetics experiments were performed to determine the mode of MIF inhibition by 6y (SI, Table S1). The rate of MIF-catalyzed PP conversion was measured at concentrations ranging from 0 to 10 mM in the absence or presence of various inhibitor concentrations (0, 1.4 μM, 2.1 μM, or 2.8 μM).
Toward this aim, 10 μL of the inhibitors was added to 190 μL of the enzyme solution and incubated for 10 min. Then, 50 μL of these solutions was mixed with 50 μL of the solutions of the substrate with different concentrations. The reactions were measured by the increase in UV absorbance at 300 nm, and the data from the first 3 min were used to calculate the initial velocities. The negative control (no MIF) was subtracted from all of the data, and the curves were fitted using nonlinear regression, Michaelis–Menten, and linear regression, Lineweaver–Burk. Vmax was defined as the maximum velocity as extrapolated by the curve fit. The Km of PP was defined as the concentration of PP at which 50% of maximum velocity was reached. The data were analyzed using GraphPad Prism 8.
1. Supporting figures and tables
Figure S1. Michaelis-Menten plot of MIF inhibition by 6y at the concentrations 0, 1.4, 2.1 and 2.8 µM.
Table S1. Kinetic parameters of 6y measured at 35nM of MIF.
(1 picture or pasted object on this page, not shown here)

MIF [2] = molecular target: T1, MIF; assay: Microscale thermophoresis (MST) binding assay; settings: 25 °C, RED-tris-NTA labeled MIF
Method: A microscale thermophoresis (MST) assay was performed to confirm the binding of 6y to MIF. […] Overall, we concluded that 6y binds reversibly to an allosteric binding site that affects MIF tautomerase activity.
MST experiments were performed on a Monolith NT.115 system (NanoTemper Technologies) using 100% LED and 60% IR-laser power. Laser on and off times were set at 30 and 5 s, respectively. A 100 nM dye solution RED-tris-NTA was prepared by mixing 2 μL of the dye (5 μM in DMSO) and 98 μL of PBS-T. The protein concentration was adjusted to 200 nM, and 100 μL of this solution was added to the tube with dye and incubated at rt for 30 min. Meanwhile, a twofold dilution series of compound 6y was prepared in PBS-T containing 5% DMSO. Subsequently, 10 μL of labeled MIF was mixed with 10 μL of the samples with 16 different concentrations of 6y ranging from 2000 to 0.06 μM. The samples were centrifuged for 10 min at rt and the supernatant was transferred into fresh tubes. After that, the standard treated capillaries (K002) were filled with the solutions and the MST curves were measured at 25 °C.

HeLa cells [3] = assay: Cell viability (MTS) assay, MNNG-induced parthanatos; type: cell-based; settings: 3 h pretreatment, MNNG 50 μM 15 min, 24 h, MTS, read-out: EC50, protection from MNNG-induced parthanatos
HeLa cells [4] = assay: Cell death determination by flow cytometry (Hoechst 33342 / PI); type: cell-based; settings: MNNG 50 μM 15 min, with or without 100 μM inhibitor pretreatment, 24 h
HeLa cells [5] = type: cell-based
MIF/ssDNA binding = molecular target: T2, MIF/ssDNA binding (Homo sapiens, UniProt P14174); assay: MIF/ssDNA binding assay (ZP307-labeled MIF, PA20-Q1 quenching); settings: labeled MIF 1 μM, PA20-Q1 1 μM; 6y up to 100 μM
T2 construct: made in house; host or cells: Escherichia coli BL21
T2 sequence (P14174 2-115 limits assumed): T1 sequence (P14174 2-115 limits assumed)
Excerpt: Although in our hands the nuclease activity could not unambiguously be assigned to MIF (due to the possibility of bacterial contamination), there is still a possibility that MIF binds to single-stranded DNA (ssDNA). Furthermore, the direct interaction between MIF and ssDNA was investigated. We developed a MIF/ssDNA binding assay to detect and quantify the binding of MIF to ssDNA (Figure 6f). To establish this assay, we employed a MIF probe ZP307 (Figure 1c) that binds covalently to the N-terminal proline of MIF. This probe enables the fluorescent labeling of MIF.[38] The oligonucleotide Poly A was earlier described as a MIF nuclease substrate, lacking a secondary structure.[11] […] This enabled using the BHQ1-labeled poly A oligonucleotide (PA20-Q1) as an energy acceptor to quench fluorescence emission by labeling MIF once a MIF/ssDNA complex formed (Figure 6f). […]
Five equivalents of probe ZP307 were mixed with recombinant MIF protein for MIF labeling and incubated overnight at 4 °C. […] The fluorescence (Ex488/Em520) was determined immediately using a BioTek Synergy H1 Hybrid plate reader. The wells in the absence of PA20-Q1 were considered a positive control (100% of fluorescence signal), whereas the wells without inhibitors were considered a negative control (0% of fluorescence signal).

Structure (SMILES): O=C(Nc1ccccc1)c1ccc(-n2cc(C(=O)NCc3cccs3)nn2)cc1 [Compound 6y, 1-(4-(Phenylcarbamoyl)phenyl)-N-(thiophen-2-ylmethyl)-1H-1,2,3-triazole-4-carboxamide]
- Vmax (MIF [1]; 1.4 μM 6y): 0.21±0.02 abs/min
- Vmax (MIF [1]; 2.1 µM 6y): 0.13±0.01 abs/min
- Vmax (MIF [1]; 2.8 μM 6y): 0.08±0.01 abs/min
- Mode of MIF inhibition (MIF [1]; Lineweaver-Burk plot, 0, 1.4, 2.1, 2.8 μM): noncompetitive
- Vmax at highest inhibitor concentration (MIF [1]; decreasing from 0.40 ± 0.03 (control)): 0.08 ± 0.01 absorbance/min
- Kd (MIF [2]): 95 µM
- EC50 (HeLa cells [3]): ~8 µM
- EC50 (HeLa cells [3]; Homo sapiens): 7.7 ± 2.1 µM
- Cells stained by PI (HeLa cells [4]): 20%
- MNNG-induced DNA damage (comet assay) (HeLa cells [5]; HeLa, 50 μM 6y 2 h, then 10 μM MNNG 2 h, alkaline conditions): inhibited
- Effect of compound alone on genome integrity (comet assay) (HeLa cells [5]; HeLa, without MNNG): did not affect genome integrity
- Genomic DNA fragmentation (gel electrophoresis) (HeLa cells [5]; pretreatment, dose and time-dependent): protective effect
- MIF/PA20-Q1 binding (MIF/ssDNA binding): unable to block MIF/PA20-Q1 binding; also recorded: could not replace the oligonucleotide

Source: PMC10350922, “Allosteric Inhibitors of Macrophage Migration Inhibitory Factor (MIF) Interfere with Apoptosis-Inducing Factor (AIF) Co-Localization to Prevent Parthanatos” (Journal of Medicinal Chemistry, 2023)
